In ChEMBL document CHEMBL1201862, “PubChem BioAssay data set” (2004):
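In this assay, cells in 96-well plates receive the compound at five concentrations for 48 hours. Endpoints are linearly interpolated between the surrounding concentrations. At the GI50, growth is halved.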 The source made the active and inactive calls. Cut-off read from the data, not from the text of the source: active = GI50 up to about 1.1 µM and inactive = higher.

What was measured:
Test in all cases: growth of human tumour cells (NCI), 48 h
MDA-N = tested on: MDA-N
SR = tested on: SR
HOP-62 = tested on: HOP-62
SF-268 = tested on: SF-268
MOLT-4 = tested on: MOLT-4
UACC-257 = tested on: UACC-257
HT-29 = tested on: HT-29
SF-295 = tested on: SF-295
OVCAR-5 = tested on: OVCAR-5
OVCAR-4 = tested on: OVCAR-4
HOP-92 = tested on: HOP-92
OVCAR-8 = tested on: OVCAR-8
M14 = tested on: M14
SNB-75 = tested on: SNB-75
NCI-H226 = tested on: NCI-H226
IGROV-1 = tested on: IGROV-1
SN12C = tested on: SN12C
MDA-MB-231 = tested on: MDA-MB-231
BT-549 = tested on: BT-549
SF-539 = tested on: SF-539

SMILES | GI50 (MDA-N) | GI50 (SR) | GI50 (HOP-62) | GI50 (SF-268) | GI50 (MOLT-4) | GI50 (UACC-257) | GI50 (HT-29) | GI50 (SF-295) | GI50 (OVCAR-5) | GI50 (OVCAR-4) | GI50 (HOP-92) | GI50 (OVCAR-8) | GI50 (M14) | GI50 (SNB-75) | GI50 (NCI-H226) | GI50 (IGROV-1) | GI50 (SN12C) | GI50 (MDA-MB-231) | GI50 (BT-549) | GI50 (SF-539)
CCOC(=O)Cc1c(C)c2ccc(OC(C)=O)c(OC(C)=O)c2oc1=O | > 100 µM (inactive) | 14.3 µM (inactive) | 40.6 µM (inactive) | 19.6 µM (inactive) | 23.6 µM (inactive) | 14.8 µM (inactive) | 29.6 µM (inactive) | 36.7 µM (inactive) | 53.6 µM (inactive) | 16.5 µM (inactive) | 17.5 µM (inactive) | 18.6 µM (inactive) | 17.9 µM (inactive) | 19.4 µM (inactive) | 32.7 µM (inactive) | 15.3 µM (inactive) | 41.8 µM (inactive) | 37.1 µM (inactive) |  | 
COc1nc(C(=O)NNC(=O)c2nc(OC)c3ccccc3c2-c2ccccc2)c(-c2ccccc2)c2ccccc12 |  | 0.113 µM (active) | > 100 µM (inactive) | > 100 µM (inactive) | > 100 µM (inactive) | > 100 µM (inactive) | > 100 µM (inactive) | > 100 µM (inactive) | > 100 µM (inactive) | > 100 µM (inactive) |  | > 100 µM (inactive) | > 100 µM (inactive) | 96.6 µM (inactive) | > 100 µM (inactive) | > 100 µM (inactive) | > 100 µM (inactive) | > 100 µM (inactive) | > 100 µM (inactive) | 
N#CC1C(=O)NC2=C(CCOc3c2ccc2ccccc32)C1c1ccc(F)cc1 (configuration not stated) |  |  | 18.5 µM (inactive) | 22.4 µM (inactive) | 37.6 µM (inactive) | > 100 µM (inactive) |  | 20.4 µM (inactive) | 23.5 µM (inactive) | 31.8 µM (inactive) | 7.46 µM (inactive) | 33.3 µM (inactive) | 26.1 µM (inactive) | 20.2 µM (inactive) |  | 17.3 µM (inactive) | 10.8 µM (inactive) |  | 60 µM (inactive) | 44.8 µM (inactive)
CN(C)CCCOC(=O)C(c1ccccc1)C1(O)CCSCC1 (configuration not stated) | > 100 µM (inactive) | > 100 µM (inactive) | > 100 µM (inactive) | > 100 µM (inactive) | > 100 µM (inactive) | > 100 µM (inactive) | > 100 µM (inactive) | > 100 µM (inactive) | > 100 µM (inactive) | > 100 µM (inactive) | > 100 µM (inactive) | > 100 µM (inactive) | > 100 µM (inactive) | 87.1 µM (inactive) | 79.1 µM (inactive) | > 100 µM (inactive) | > 100 µM (inactive) | > 100 µM (inactive) |  | > 100 µM (inactive)
Cc1cccc(C)c1NC(=O)CCC(=O)/N=C(\N)NC#N |  | > 100 µM (inactive) | > 100 µM (inactive) | > 100 µM (inactive) | > 100 µM (inactive) | > 100 µM (inactive) | > 100 µM (inactive) | > 100 µM (inactive) | > 100 µM (inactive) | > 100 µM (inactive) | > 100 µM (inactive) | > 100 µM (inactive) | > 100 µM (inactive) | > 100 µM (inactive) | > 100 µM (inactive) | > 100 µM (inactive) | > 100 µM (inactive) |  |  | > 100 µM (inactive)
[O-][S+](CCCl)c1c2ccccc2nc2ccccc12 (configuration not stated) | 34.5 µM (inactive) | > 100 µM (inactive) | > 100 µM (inactive) | > 100 µM (inactive) | 37.2 µM (inactive) | > 100 µM (inactive) | 53.6 µM (inactive) | > 100 µM (inactive) | > 100 µM (inactive) | > 100 µM (inactive) | > 100 µM (inactive) | 85.1 µM (inactive) | 75 µM (inactive) | > 100 µM (inactive) | > 100 µM (inactive) | 38.6 µM (inactive) | 23.3 µM (inactive) | 70.6 µM (inactive) |  | 31.9 µM (inactive)
N#C[C@H]1Nc2ccccc2[C@@H](O)C1O (some centres not stated) | > 100 µM (inactive) | > 100 µM (inactive) | > 100 µM (inactive) | > 100 µM (inactive) | > 100 µM (inactive) | > 100 µM (inactive) | > 100 µM (inactive) | > 100 µM (inactive) | > 100 µM (inactive) | > 100 µM (inactive) | > 100 µM (inactive) | > 100 µM (inactive) | > 100 µM (inactive) | > 100 µM (inactive) |  | > 100 µM (inactive) | > 100 µM (inactive) | > 100 µM (inactive) |  | > 100 µM (inactive)
COc1cc(CC2CC(c3ccc4c(c3)OCO4)OC2=O)cc(OC)c1OC (configuration not stated) |  | > 100 µM (inactive) | > 100 µM (inactive) | > 100 µM (inactive) | 83 µM (inactive) | 77.4 µM (inactive) | > 100 µM (inactive) | > 100 µM (inactive) | > 100 µM (inactive) |  | 13.6 µM (inactive) | > 100 µM (inactive) | > 100 µM (inactive) | > 100 µM (inactive) | > 100 µM (inactive) |  | > 100 µM (inactive) | 52.1 µM (inactive) |  | > 100 µM (inactive)
COC(=O)C1=C(O)c2cc3c(cc2[C@H](c2cc(OC)c(OC)c(OC)c2)C1)OCO3 |  | 30.8 µM (inactive) | > 100 µM (inactive) | 51.5 µM (inactive) | 24.1 µM (inactive) | 34 µM (inactive) | 48.1 µM (inactive) | 37.5 µM (inactive) | > 100 µM (inactive) | 32.5 µM (inactive) | 96.8 µM (inactive) | 51.3 µM (inactive) | 34.7 µM (inactive) | > 100 µM (inactive) | 87.7 µM (inactive) | 24.4 µM (inactive) | 54.1 µM (inactive) |  |  | > 100 µM (inactive)
CC1CCCC(C(O)CC2CC(=O)N(c3ccccc3)C(=O)C2)C1=O (configuration not stated) |  | > 100 µM (inactive) | > 100 µM (inactive) | > 100 µM (inactive) | > 100 µM (inactive) | > 100 µM (inactive) | > 100 µM (inactive) | > 100 µM (inactive) | > 100 µM (inactive) | > 100 µM (inactive) | > 100 µM (inactive) | > 100 µM (inactive) | > 100 µM (inactive) | > 100 µM (inactive) | > 100 µM (inactive) | > 100 µM (inactive) | > 100 µM (inactive) |  |  | > 100 µM (inactive)
Cc1c(C(=O)/C=C/c2ccccc2)[n+]([O-])c2ccccc2[n+]1[O-] |  | 23.2 µM (inactive) | 18.1 µM (inactive) | 19.7 µM (inactive) | 21.3 µM (inactive) | 16.6 µM (inactive) | 19.3 µM (inactive) | 16.4 µM (inactive) | 16.7 µM (inactive) | 15 µM (inactive) | 11.6 µM (inactive) | 15 µM (inactive) | 15.3 µM (inactive) | 23.6 µM (inactive) | 20.8 µM (inactive) | 17.5 µM (inactive) | 13.8 µM (inactive) |  |  | 15.5 µM (inactive)
COC(=O)c1c[nH]c2nc(N3CCOCC3)nn2c1=O |  | > 100 µM (inactive) | > 100 µM (inactive) | > 100 µM (inactive) | > 100 µM (inactive) | > 100 µM (inactive) | > 100 µM (inactive) | > 100 µM (inactive) | > 100 µM (inactive) | > 100 µM (inactive) | > 100 µM (inactive) | > 100 µM (inactive) | > 100 µM (inactive) | > 100 µM (inactive) | > 100 µM (inactive) | 1.84 µM (inactive) | > 100 µM (inactive) |  |  | > 100 µM (inactive)
